Series [1] has as its system KM mice. Briefly: formalin-induced paw-licking test. The series is classed as in vivo. As for the experimental part: Male KM mice (18–22 g) were obtained from Liaoning Changsheng Biotechnology Co., Ltd. The mice were acclimated for 1 week at 18°C–22°C and 50%–70% humidity, following approval by the Animal Ethics Committee of Shenyang Pharmaceutical University, China. The pain response was assessed using a formalin-induced paw-licking test. The saline solution, 5 mg/kg morphine, commonly used analgesic medications in clinical practice, or 0.75 mg/kg peptides, ProTx II, and its mutants, were injected via the tail vein to relief the pain. After half an hour, a 20-μL 5% (v/v) formalin solution was administered as an activator to induce pain in mice (n = 10) ([Miranda et al., 2007]). The cumulative pain behavior that occurred 0–5 min (phase I, an immediate nociceptive phase) and 20–60 min (phase II, a later inflammatory phase) after injection was recorded for 60 min at 5 min intervals in individual cages to measure the total licking time in phases I and II, respectively.

The target in series [2] is human voltage-gated sodium channel Nav1.7, on CHO cells (human) (UniProt Q15858).
UniProt Q15858, sequence (Q15858 whole entry): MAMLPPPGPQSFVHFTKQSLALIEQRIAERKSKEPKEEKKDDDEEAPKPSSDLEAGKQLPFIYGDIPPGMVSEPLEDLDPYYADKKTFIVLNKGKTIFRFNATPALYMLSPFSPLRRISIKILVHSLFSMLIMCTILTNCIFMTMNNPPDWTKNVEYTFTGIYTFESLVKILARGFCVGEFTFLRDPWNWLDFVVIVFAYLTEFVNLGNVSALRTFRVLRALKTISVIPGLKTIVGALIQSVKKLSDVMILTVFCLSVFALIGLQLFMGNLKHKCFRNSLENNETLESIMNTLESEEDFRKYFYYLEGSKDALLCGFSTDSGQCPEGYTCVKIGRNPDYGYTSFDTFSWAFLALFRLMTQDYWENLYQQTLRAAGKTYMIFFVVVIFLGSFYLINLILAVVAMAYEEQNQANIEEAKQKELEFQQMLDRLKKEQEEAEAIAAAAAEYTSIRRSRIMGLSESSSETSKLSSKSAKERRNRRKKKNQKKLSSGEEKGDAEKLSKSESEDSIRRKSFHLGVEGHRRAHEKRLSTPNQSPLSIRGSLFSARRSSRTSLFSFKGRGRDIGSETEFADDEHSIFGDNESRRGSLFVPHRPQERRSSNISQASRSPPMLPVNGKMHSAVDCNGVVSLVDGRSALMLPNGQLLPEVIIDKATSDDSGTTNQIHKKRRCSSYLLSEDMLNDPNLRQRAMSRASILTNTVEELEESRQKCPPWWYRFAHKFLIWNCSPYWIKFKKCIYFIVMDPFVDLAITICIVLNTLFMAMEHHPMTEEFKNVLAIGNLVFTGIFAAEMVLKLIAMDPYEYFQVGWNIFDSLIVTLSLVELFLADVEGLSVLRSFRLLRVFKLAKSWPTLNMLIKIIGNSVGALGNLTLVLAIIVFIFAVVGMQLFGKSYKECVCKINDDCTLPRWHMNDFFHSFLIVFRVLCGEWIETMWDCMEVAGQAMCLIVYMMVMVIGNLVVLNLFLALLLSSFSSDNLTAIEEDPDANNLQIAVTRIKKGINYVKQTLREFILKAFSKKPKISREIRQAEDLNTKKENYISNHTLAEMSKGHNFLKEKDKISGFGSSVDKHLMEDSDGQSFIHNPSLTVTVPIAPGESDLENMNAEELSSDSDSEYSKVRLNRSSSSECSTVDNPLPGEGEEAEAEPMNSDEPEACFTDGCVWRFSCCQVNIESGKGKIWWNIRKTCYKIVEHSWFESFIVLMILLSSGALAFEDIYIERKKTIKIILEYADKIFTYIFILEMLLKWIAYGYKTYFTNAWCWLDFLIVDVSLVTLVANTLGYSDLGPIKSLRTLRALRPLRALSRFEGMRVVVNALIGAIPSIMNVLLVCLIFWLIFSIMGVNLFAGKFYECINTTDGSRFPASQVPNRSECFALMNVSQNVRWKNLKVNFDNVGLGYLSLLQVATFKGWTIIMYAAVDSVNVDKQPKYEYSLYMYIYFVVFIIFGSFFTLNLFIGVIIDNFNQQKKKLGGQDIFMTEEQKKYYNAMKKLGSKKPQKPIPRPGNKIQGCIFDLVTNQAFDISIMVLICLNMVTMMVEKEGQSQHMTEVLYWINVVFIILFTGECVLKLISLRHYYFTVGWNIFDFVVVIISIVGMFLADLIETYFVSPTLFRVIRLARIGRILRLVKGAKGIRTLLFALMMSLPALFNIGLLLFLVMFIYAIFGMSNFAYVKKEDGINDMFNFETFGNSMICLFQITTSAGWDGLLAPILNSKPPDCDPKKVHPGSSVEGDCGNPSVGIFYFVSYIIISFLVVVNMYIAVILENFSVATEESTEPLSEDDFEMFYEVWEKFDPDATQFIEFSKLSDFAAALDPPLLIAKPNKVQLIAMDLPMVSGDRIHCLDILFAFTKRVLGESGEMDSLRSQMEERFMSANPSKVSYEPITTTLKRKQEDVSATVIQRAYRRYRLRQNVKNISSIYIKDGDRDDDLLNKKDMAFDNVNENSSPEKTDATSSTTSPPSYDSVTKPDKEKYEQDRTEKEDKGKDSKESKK
The target in series [3] is human voltage-gated sodium channel Nav1.4, on CHO cells (human) (UniProt P35499).
UniProt P35499, sequence (P35499 whole entry): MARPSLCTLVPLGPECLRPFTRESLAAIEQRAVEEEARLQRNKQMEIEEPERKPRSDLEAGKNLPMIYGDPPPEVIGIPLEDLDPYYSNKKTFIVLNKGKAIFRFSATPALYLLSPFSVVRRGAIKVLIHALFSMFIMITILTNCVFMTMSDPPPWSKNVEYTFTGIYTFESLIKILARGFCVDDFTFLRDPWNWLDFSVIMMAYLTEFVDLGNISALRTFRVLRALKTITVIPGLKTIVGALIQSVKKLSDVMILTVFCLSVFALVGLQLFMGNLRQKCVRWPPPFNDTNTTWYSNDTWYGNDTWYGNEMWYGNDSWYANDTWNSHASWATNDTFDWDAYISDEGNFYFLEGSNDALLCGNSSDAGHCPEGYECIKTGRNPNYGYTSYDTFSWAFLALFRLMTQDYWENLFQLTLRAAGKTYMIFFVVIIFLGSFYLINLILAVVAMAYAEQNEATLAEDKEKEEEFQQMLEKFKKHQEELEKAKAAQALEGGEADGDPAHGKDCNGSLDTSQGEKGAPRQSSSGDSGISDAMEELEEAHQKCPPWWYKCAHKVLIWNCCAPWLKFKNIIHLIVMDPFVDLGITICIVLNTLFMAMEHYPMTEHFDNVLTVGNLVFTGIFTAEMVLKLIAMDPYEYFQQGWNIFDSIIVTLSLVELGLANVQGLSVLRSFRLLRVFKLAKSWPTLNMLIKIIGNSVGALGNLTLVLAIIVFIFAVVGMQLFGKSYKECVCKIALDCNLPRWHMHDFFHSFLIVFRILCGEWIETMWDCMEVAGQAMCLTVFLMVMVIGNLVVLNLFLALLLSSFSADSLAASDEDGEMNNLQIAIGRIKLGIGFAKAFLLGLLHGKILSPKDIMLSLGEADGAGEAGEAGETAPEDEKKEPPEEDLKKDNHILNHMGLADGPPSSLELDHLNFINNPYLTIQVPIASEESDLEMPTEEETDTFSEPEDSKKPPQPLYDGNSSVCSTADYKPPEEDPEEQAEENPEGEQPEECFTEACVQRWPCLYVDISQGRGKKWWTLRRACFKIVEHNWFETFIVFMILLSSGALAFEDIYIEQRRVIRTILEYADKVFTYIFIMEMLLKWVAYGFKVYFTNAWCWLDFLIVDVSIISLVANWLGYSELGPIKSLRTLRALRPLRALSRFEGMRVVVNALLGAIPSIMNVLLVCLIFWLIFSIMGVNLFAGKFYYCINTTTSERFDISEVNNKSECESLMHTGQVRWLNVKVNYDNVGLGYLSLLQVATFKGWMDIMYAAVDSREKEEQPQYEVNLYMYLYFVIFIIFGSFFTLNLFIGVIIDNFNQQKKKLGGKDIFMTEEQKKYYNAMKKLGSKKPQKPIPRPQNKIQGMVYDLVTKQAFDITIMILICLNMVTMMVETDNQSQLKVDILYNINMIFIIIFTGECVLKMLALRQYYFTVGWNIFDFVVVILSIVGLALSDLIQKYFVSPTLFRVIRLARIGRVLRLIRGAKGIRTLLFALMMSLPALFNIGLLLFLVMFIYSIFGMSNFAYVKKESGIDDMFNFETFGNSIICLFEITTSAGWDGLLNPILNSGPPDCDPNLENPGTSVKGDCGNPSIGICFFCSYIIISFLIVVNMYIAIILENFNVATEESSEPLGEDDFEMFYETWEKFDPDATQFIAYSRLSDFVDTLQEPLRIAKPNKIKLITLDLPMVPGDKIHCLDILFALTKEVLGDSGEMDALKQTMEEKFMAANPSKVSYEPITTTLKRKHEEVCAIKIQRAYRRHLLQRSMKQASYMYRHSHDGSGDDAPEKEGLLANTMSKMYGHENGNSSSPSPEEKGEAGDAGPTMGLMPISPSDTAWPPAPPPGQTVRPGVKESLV
The next series concerns hNav1.4. Nature of the series: whole-cell patch clamp, CHO-Nav1.4 sodium current. The series is classed as cell-based, human. As for the experimental part: (§1) Nav1.4-CHO cells and Nav1.7-CHO cells were maintained in Iscove’s modified Dulbecco’s medium (Gibco) supplemented with 10% (v/v) fetal bovine serum (FBS) and 200 μg/mL G418 (Sigma). All cells were cultured at 37 °C and 5% CO2 atmosphere. Mouse myoblasts C2C12, obtained from the Stem Cell Bank of The Chinese Academy of Sciences, were grown in Dulbecco’s modified Eagle‘s medium (DMEM) enriched with 10% heat-inactivated FBS, 2 mM L glutamine, 100 U/mL of penicillin, and 100 μg/mL of streptomycin. The C2C12 cells typically reached confluence in 3–5 days in 75-T flasks. For passaging, monolayers were treated with 0.25% trypsin for 3–5 min, rinsed twice with DMEM, and sub-cultured at a ratio of 1:4. Similarly, the Chinese hamster ovary (CHO) cells were cultured in IMDM medium supplemented with 10% fetal bovine serum, 1% penicillin/streptomycin, 100 μM hypoxanthine, and 16 μM thymidine. When 90% confluence was achieved, cells were separated by 0.25% trypsin EDTA, and patch clamp electrophysiology experiments were carried out.
(§2) Automatic electrophysiological platforms (NPC-1 and Port-a-Patch systems, […], Munich, Germany) and EPC10 amplifiers (HEKA Elektronik, Lambrecht, Germany) assessed the effects of recombinant ProTx2 and its mutants on CHO-Nav1.4 and CHO-Nav1.7. […]
On the technique in general: Patch clamp records ionic current or voltage across a cell membrane.

For the next series, the system named is C2C12 cells. Briefly: C2C12 cell viability (CCK8 assay). The class given is cell-based, mouse. The note with it: CCK8, 450 nm, 18-h exposure, 0-160 μg/mL, serum-free, n = 5; R13D effect particularly between 100 and 160 μg/mL; relative to wild-type peptide. As for the experimental part:
as §1
C2C12 cell viability in response to ProTx2 or it mutants was evaluated using the CCK8 assay ([Pan et al., 2019]; [Ge et al., 2020]). […] After 18 h of treatment, cell viability was assessed by measuring the absorbance at 450 nm, following the addition of the CCK-8 reagent.

The next series concerns hNav1.7. Briefly: whole-cell patch clamp, CHO-Nav1.7 sodium current. The class given is cell-based, human. As for the experimental part: as §1, §2
The subject of series [4] is KM mice. Nature of the series: forced swimming test. The series is classed as in vivo. As for the experimental part: Additionally, a forced swimming test measured endurance following 7 days of treatment with ProTx2 or its mutants ([Porsolt et al., 1977]; [Galeotti et al., 2002]; [Xu et al., 2017]). Fifty male KM mice were randomly divided into five groups with 10 mice in each group. The groups were classified as normal saline control, ProTx2, R13A, R13D, and K27Y.
Following a 7-day treatment regimen, mice received injections of ProTx2 or its mutants and underwent forced swimming tests 20 min after the final treatment.

Entries after “also recorded” stand apart in the source; their conditions may differ. Where no end group is shown, it is not given here.

As for `CN1CC[C@]23c4c5ccc(O)c4O[C@H]2[C@@H](O)C=C[C@H]3[C@H]1C5` [morphine, reference compound], in the series on KM mice [1] (mouse, in vivo, 5 mg/kg), the “total licking time, phase I (morphine)” value was 7.5 ± 1.6 s and the “total licking time, phase II (morphine)” value turned out to be 42.1 ± 6.1 s.
Consider “ProTx2 (Protoxin-II), wild type, recombinant (from UniProt P83476 1-30) (peptide)”, for which the peak sodium current amplitude (normalized) of hNav1.7-CHO cells, whole-cell patch clamp, peptide at 1 μM in series [2] turned out to be 82%. The same molecule yielded a peak sodium current amplitude (normalized) of hNav1.4-CHO cells, whole-cell patch clamp, peptide at 1 μM in series [3] of 50%.
Consider “ProTx2 mutant R13D, recombinant (from UniProt P83476 1-30) (peptide)”, for which the peak sodium current amplitude (normalized) of hNav1.7-CHO cells, whole-cell patch clamp, peptide at 1 μM in series [2] was 68%. This molecule also came in with a peak sodium current amplitude (normalized) of hNav1.4-CHO cells, whole-cell patch clamp, peptide at 1 μM in series [3] of 59%.
As for “R13D: single-point mutation (R13D) in ProTx2 (YCQKWMWTCDSEDKCCEGMVCRLWCKKKLW; ends and bridges not checked; cysteine pairing not given here)”, the “analgesic effect” value in the series with KM mice [1] (formalin model, 0.75 mg/kg peptide, tail vein, versus wild-type ProTx2, 0.75 mg/kg) was “maintained the analgesic effect in mice; also recorded: significantly alleviated pain in both the acute and inflammatory phases, outperforming the wild-type ProTx2”. Further, in the series with KM mice [1] (phase I (0–5 min), 0.75 mg/kg peptide, tail vein, half an hour before 20 μL 5% formalin, male KM mice, n = 10), the “total licking time, phase I” value was 33.5 ± 1.6 s. For the same molecule, the “total licking time, phase II” value in the series on KM mice [1] (phase II (20–60 min), 0.75 mg/kg peptide, tail vein, half an hour before 20 μL 5% formalin, male KM mice, n = 10) is given as 128.0 ± 5.2 s. In the series on hNav1.4 (1 μM, normalized Na+ peak current at −30 mV, CHO cells, whole-cell, holding −80 mV, 22°C, 10 cells per set), the “peak sodium current amplitude, hNav1.4” value is listed as 59%. For the same molecule, the “inhibition of hNav1.4 current” value in the series with hNav1.4 (CHO-Nav1.4, whole-cell, relative to ProTx2 for R13D) is “marginally diminished effect on hNav1.4”. In addition, in the series on C2C12 cells, the “C2C12 cellular viability” value was “significantly improved cellular viability in a concentration-dependent manner, particularly between 100 and 160 μg/mL”. Moreover, the “peak sodium current amplitude, hNav1.7” value with hNav1.7 (1 μM, normalized Na+ peak current at −30 mV, CHO cells, whole-cell, holding −80 mV, 22°C, 10 cells per set, R13D vs ProTx2 p < 0.01) came out at 68%. Moreover, in the series on hNav1.7 (CHO-Nav1.7, whole-cell, relative to ProTx2 for R13D), the “inhibition of hNav1.7 current” value is recorded as “pronouncedly intensified inhibition of hNav1.7”. Also, in the series with KM mice [4] (7-day treatment, test 20 min after final treatment, male KM mice, n = 10, versus wild-type ProTx2), the “swimming endurance / muscular toxicity” value is on record as “significantly prolonged endurance compared to the wild-type ProTx2 group, suggesting reduced muscular toxicity (p < 0.05)”. The “muscle toxicity” value in the series on KM mice [4] (summary in abstract, compared with ProTx2) was “dramatically reducing its muscle toxicity compared with ProTx2”.

The record behind these values is publication PMC11096480, “The road to evolution of ProTx2: how to be a subtype-specific inhibition of human Nav1.7” (Frontiers in Pharmacology, 2024).
